In the supplement of paper PMC10307832:

Key:
Assay in all cases: relative viability (nuclei count vs DMSO), 5 days (fraction); higher = more cells survive
[1] = compound: CC(C)C[C@@H](C(=O)N[C@H](C(=O)OC1CCCC1)c1ccccc1)[C@H](O)C(=O)NO [Tosedostat] + CC(=O)c1c(C)c2cnc(Nc3ccc(N4CCNCC4)cn3)nc2n(C2CCCC2)c1=O [Palbociclib] (partner 0.5 µM)
In short: (§1)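 A single step with final 0.05% Triton X-100, 1% formaldehyde and 1 ug/ml Hoechst fixed the cells and stained nuclei 5 days after treatment. Lung cancer cell lines in 1536-well plates had been treated by pin tool the day after seeding with one drug alone or a fixed anchor-drug dose plus five library-drug doses (not always all listed) in √10 steps, and nuclei were counted on 4× images. Relative viability is the ratio of nuclei in treated wells to nuclei in vehicle wells, taken as the median of duplicate plates.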

[2] = compound: CC1=NN=C(O1)C2=NN=C(C=C2)N3CCC(CC3)OC4=C(C=CC(=C4)F)Cl + O=C(c1cc(Cc2n[nH]c(=O)c3ccccc23)ccc1F)N1CCN(C(=O)C2CC2)CC1 [Olaparib] (partner 8 µM)
In short: as §1

[3] = compound: CC1=NN=C(O1)C2=NN=C(C=C2)N3CCC(CC3)OC4=C(C=CC(=C4)F)Cl + CS(=O)(=O)N1CCN(Cc2cc3nc(-c4cccc5[nH]ncc45)nc(N4CCOCC4)c3s2)CC1 [Pictilisib] (partner 1 µM)
In short: as §1

[4] = compound: CC1=NN=C(O1)C2=NN=C(C=C2)N3CCC(CC3)OC4=C(C=CC(=C4)F)Cl + CC(=O)c1c(C)c2cnc(Nc3ccc(N4CCNCC4)cn3)nc2n(C2CCCC2)c1=O [Palbociclib] (partner 0.5 µM)
In short: as §1

Cell Line	relative viability ([1]; first compound 0.02 µM)	relative viability ([1]; first compound 0.06325 µM)	relative viability ([1]; first compound 0.2 µM)	relative viability ([1]; first compound 0.6325 µM)	relative viability ([1]; first compound 2 µM)	relative viability ([2]; first compound 0.253 µM)	relative viability ([2]; first compound 0.8 µM)	relative viability ([2]; first compound 2.53 µM)	relative viability ([2]; first compound 8 µM)	relative viability ([3]; first compound 0.253 µM)	relative viability ([3]; first compound 0.8 µM)	relative viability ([3]; first compound 2.53 µM)	relative viability ([3]; first compound 8 µM)	relative viability ([4]; first compound 0.253 µM)	relative viability ([4]; first compound 0.8 µM)	relative viability ([4]; first compound 2.53 µM)	relative viability ([4]; first compound 8 µM)
NCI-H520	0.245	0.236	0.239	0.303	0.315	0.308	0.346	0.294	0.259	0.3	0.325	0.29	0.316	0.247	0.258	0.263	0.251
NCI-H647	0.401	0.344	0.388	0.427	0.502	0.232	0.157	0.173	0.0657	0.398	0.552	0.392	0.391	0.168	0.201	0.155	0.0745
NCI-H650	0.31	0.342	0.291	0.35	0.295	0.39	0.227	0.407	0.382	0.869	0.775	0.47	0.889	0.323	0.318	0.32	0.314
NCI-H661	0.428	0.432	0.491	0.507	0.493	0.619	0.542	0.583	0.586	0.386	0.367	0.376	0.366	0.354	0.38	0.355	0.302
NCI-H727	0.715	0.637	0.617	0.645	0.597	0.68	0.7	0.656	0.665	0.475	0.4	0.498	0.403	0.672	0.708	0.718	0.596
NCI-H838	0.243	0.219	0.216	0.261	0.256	0.536	0.595	0.637	0.591	0.422	0.459	0.442	0.416	0.192	0.24	0.222	0.196
NCI-H1355	0.351	0.399	0.384	0.403	0.374	0.378	0.422	0.75	0.596			0.453	0.374	0.25	0.359	0.353	0.353
NCI-H1395	0.63	0.661	0.596	0.709	0.596	0.482	0.539	0.445	0.448	0.565	0.597	0.567	0.549	0.562	0.592	0.599	0.626
NCI-H1437	0.355	0.32	0.357	0.353	0.38	0.416	0.516	0.449	0.403	0.556	0.426	0.447	0.386	0.22	0.233	0.268	0.168
NCI-H1650	0.352	0.39	0.376	0.417	0.504	0.516	0.645	0.642	0.597		0.588	0.554	0.561	0.253	0.334	0.3	0.292
NCI-H1651	0.528	0.525	0.511	0.553	0.535	0.165	0.162	0.17	0.162	0.506	0.665	0.524	0.417	0.337	0.387	0.331	0.346
NCI-H1666	0.589	0.696	0.61	0.601	0.657	0.692	0.728	0.655	0.664	0.276	0.414	0.456	0.313	0.632	0.684	0.651	0.627
NCI-H1734	0.367	0.372	0.354	0.313	0.265	0.544	0.509	0.57	0.472	0.451	0.404	0.421	0.355	0.344	0.334	0.345	0.324
NCI-H1755	0.472	0.47	0.465	0.503	0.423	0.65	0.616	0.657	0.562	0.382	0.383	0.398	0.387	0.334	0.451	0.464	0.4
NCI-H1792	0.659	0.634	0.612	0.683	0.695	0.264	0.376	0.337	0.364	0.205	0.314	0.375	0.411	0.358	0.502	0.449	0.474
NCI-H1793	0.302	0.325	0.339	0.293	0.375	0.761	0.74	0.762	0.738	0.307	0.312	0.31	0.347	0.304	0.314	0.342	0.301
NCI-H1915	0.41	0.512	0.554	0.523	0.495	0.202	0.17	0.184	0.162	0.763	0.586	0.698	0.563	0.385	0.291	0.319	0.266
NCI-H1944	0.315	0.356	0.386	0.32	0.377	0.289	0.337	0.359	0.344	0.31	0.381	0.381	0.331	0.238	0.278	0.249	0.246

Cell Line	relative viability ([1]; first compound 0.02 µM)	relative viability ([1]; first compound 0.06325 µM)	relative viability ([1]; first compound 0.2 µM)	relative viability ([1]; first compound 0.6325 µM)	relative viability ([1]; first compound 2 µM)	relative viability ([2]; first compound 0.253 µM)	relative viability ([2]; first compound 0.8 µM)	relative viability ([2]; first compound 2.53 µM)	relative viability ([2]; first compound 8 µM)	relative viability ([3]; first compound 0.253 µM)	relative viability ([3]; first compound 0.8 µM)	relative viability ([3]; first compound 2.53 µM)	relative viability ([3]; first compound 8 µM)	relative viability ([4]; first compound 0.253 µM)	relative viability ([4]; first compound 0.8 µM)	relative viability ([4]; first compound 2.53 µM)	relative viability ([4]; first compound 8 µM)
NCI-H1975	0.574	0.53	0.561	0.432	0.415	0.466	0.574	0.518	0.533		0.332	0.411	0.402	0.2	0.363	0.517	0.411
NCI-H1993	0.72	0.688	0.698	0.67	0.562	0.894	0.758	0.855	0.856	0.742	0.78	0.821	0.789	0.523	0.579	0.644	0.603
NCI-H2009	0.252	0.212	0.254	0.274	0.181	0.363	0.39	0.421	0.375	0.711	0.618	0.659	0.637	0.175	0.204	0.156	0.158
NCI-H2023	0.333	0.331	0.368	0.344	0.424	0.311	0.274	0.307	0.235	0.22	0.27	0.308	0.18	0.28	0.277	0.233	0.199
NCI-H2085		0.498	0.474	0.512	0.561	0.636	0.604	0.709	0.553	0.387	0.471	0.452	0.39	0.425	0.431	0.469	0.37
NCI-H2087	0.247	0.288	0.233	0.207	0.22	0.502	0.34	0.485	0.425	0.769	0.604	0.795	0.66	0.239	0.262	0.21	0.195
NCI-H2126	0.328	0.352	0.352	0.352	0.352	0.816	0.697	0.767	0.76	0.433	0.478	0.441	0.412	0.368	0.338	0.326	0.353
NCI-H2170	0.399	0.394	0.393	0.406	0.393	0.303	0.248	0.342	0.256	0.282	0.335	0.368	0.274	0.196	0.22	0.22	0.175
NCI-H2228	1	0.865	0.821	0.473	0.426	0.461	0.291	0.702	0.637	0.297	0.313	0.538	0.404	0.675	0.394	0.681	0.538
NCI-H2347	0.411	0.451	0.407	0.494	0.4	0.49	0.49	0.552	0.44	0.024	0.53	0.422	0.753	0.459	0.43	0.411	0.386
NCI-H2405	0.576	0.559	0.548	0.484	0.466	0.586	0.469	0.514	0.499	0.401	0.523	0.4	0.385	0.319	0.349	0.332	0.346
NCI-H3122	0.195	0.211	0.216	0.22	0.249	0.283	0.273	0.336	0.293	0.643	0.593	0.648	0.642	0.191	0.201	0.183	0.221
PC-3 [JPC-3]	0.538	0.547	0.554	0.493	0.555	1	0.899	0.997	1.04	0.602	0.677	0.84	0.654	0.507	0.538	0.537	0.551
PC-14	0.583	0.469	0.502	0.447	0.444	0.257	0.226	0.317	0.266	0.603	0.735	0.781	0.702	0.503	0.444	0.449	0.44
RERF-LC-KJ	1.23	1.04	0.845	0.755	0.859	0.377	0.536	0.553	0.529	0.561	0.529	0.482	0.454	0.617	0.667	0.633	0.688
SK-LU-1	0.429	0.401	0.467	0.341	0.4	0.356	0.341	0.348	0.41	0.518	0.508	0.529	0.42	0.428	0.334	0.33	0.47
SK-MES-1	0.305	0.3	0.353	0.355	0.302	0.497	0.507	0.538	0.507	0.263	0.377	0.341	0.384	0.28	0.355	0.341	0.352
SW 1573	0.427	0.394	0.369	0.308	0.402	0.524	0.519	0.426	0.412	0.527	0.415	0.473	0.383	0.314	0.372	0.255	0.262
